The source of these data is ChEMBL document CHEMBL4819104, “Discovery of 2-amino-3-amido-5-aryl-pyridines as highly potent, orally bioavailable, and efficacious PERK kinase inhibitors” (Bioorg Med Chem Lett, 2021).

A short description of series [1]: Plasma protein binding in human. It counts as ADME, cell-free. The conditions noted are these: read-out: PPB (converted).
Series [2] is described as follows: Efflux ratio of apparent permeability in human Caco-2 cells. Format: ADME, cell-based.
Series [3] can be described thus: Half life in mouse at 10 mg/kg, po. It counts as ADME, organism-based. The conditions noted are these: in vivo.
In the next series the test system is 786-0. The series is described as follows: Anticancer activity against human 786-0 cells xenografted in clear cell renal cell carcinoma mouse model assessed as tumor growth inhibition at 10 mg/kg measured at day 28 relative to control. Format: functional. The conditions noted are these: 786-0, 672 h, read-out: TGI. (In xenograft studies the graft and the host belong to different species.)

Series [4] is described as follows: Plasma protein binding in mouse. It counts as ADME, cell-free. The conditions noted are these: read-out: PPB (converted).
Series [5] deals with T1, Receptor-interacting serine/threonine-protein kinase 1 (Homo sapiens) (UniProt Q13546).
T1 sequence (whole entry): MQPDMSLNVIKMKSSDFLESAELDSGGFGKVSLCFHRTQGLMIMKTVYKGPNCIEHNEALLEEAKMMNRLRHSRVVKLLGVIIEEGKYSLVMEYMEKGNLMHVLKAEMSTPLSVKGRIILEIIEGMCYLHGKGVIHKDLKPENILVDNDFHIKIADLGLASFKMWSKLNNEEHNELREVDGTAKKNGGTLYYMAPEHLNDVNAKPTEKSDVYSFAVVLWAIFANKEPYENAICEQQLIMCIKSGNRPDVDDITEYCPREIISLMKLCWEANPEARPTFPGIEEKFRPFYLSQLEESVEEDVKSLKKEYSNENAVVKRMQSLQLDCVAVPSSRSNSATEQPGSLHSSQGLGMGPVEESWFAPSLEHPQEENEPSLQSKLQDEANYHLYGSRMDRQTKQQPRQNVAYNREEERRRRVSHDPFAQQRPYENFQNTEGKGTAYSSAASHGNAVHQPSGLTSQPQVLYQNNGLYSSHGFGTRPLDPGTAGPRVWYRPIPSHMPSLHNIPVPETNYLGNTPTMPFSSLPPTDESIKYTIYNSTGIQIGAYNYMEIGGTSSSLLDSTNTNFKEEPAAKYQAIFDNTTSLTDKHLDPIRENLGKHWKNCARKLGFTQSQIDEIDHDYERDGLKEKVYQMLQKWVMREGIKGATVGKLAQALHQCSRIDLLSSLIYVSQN
The series is described as follows: Inhibition of wild-type human partial length RIPK1 (M1 to K305 residues) expressed in bacterial expression system assessed as residual activity at 10 uM by Kinomescan method relative to control.

Series [6] in a line: Plasma protein binding in dog. It counts as ADME, cell-free, Canis lupus familiaris. To be noted: read-out: PPB (converted).
Series [7] can be described thus: Oral bioavailability in mouse at 10 mg/kg. It counts as ADME, organism-based. The conditions noted are these: in vivo.
Series [8] can be described thus: Half life in dog hepatocytes. Format: ADME, cell-based, Canis lupus familiaris, Hepatocyte.

Broadly, the efflux ratio is the permeability from basolateral to apical divided by that in the opposite direction, in the common usage. Usually half-life stands for the time in which the quantity being followed falls by half. A higher half-life goes with slow loss. Broadly, the bioavailability is the share of a dose that reaches the circulation, judged against a reference dose that is usually intravenous. A low value points to poor availability. As for `CCc1cc(NC(=O)[C@H](O)c2cc(F)cc(F)c2)ccc1-c1cnc(N)c(C(=O)NC(C)C)c1`, the fraction unbound in [1] is 0.003; in [4], 0.006; in [6] it was 0.002. Besides, the efflux ratio in [2] is 2.3. Moreover, the half-life in [3] was 2 h; in [8] it was 8.22 h. For the same compound, in the series on 786-0, the inhibition in vivo at 10 mg/kg is 40%. Moreover, the Activity in series [5] was 100%. The bioavailability in series [7] came out at 70%.
